Measurements: patent US6288091A, “Antiherpes virus compounds and methods for their preparation and use” (Boehringer Ingelheim Ltd., priority 1999, dated 2001)

What was measured:
HSV-2 HG-52 = test: Mouse genital model, vaginal HSV-2 infection, oral administration; assay type: in vivo, Swiss Webster mouse; conditions: Human alphaherpesvirus 2, 3 h, Group 1 Table 1 entries, commencing three hours post infection, read-out: ED50, reduction of viral pathology
Method: Antiviral activity for Group 1 compounds was also observed in the mouse genital model of R. W. Sidwell et al., supra. Vaginal HSV-2 infection in the Swiss Webster mouse was initiated by vaginal irritation and instillation of HSV-2 (HSV-2 HG-52, 1×10^7 PFU). Viral pathology was measured as described above.

[1] = tested on: HSV-1 acyclovir-resistant mutant strain PAA^r 5; test: Acyclovir-resistant HSV-1 cutaneous infection in immunodeficient nu/nu mice, strain PAAr 5; assay type: in vivo, female nu/nu mice
Method: (§1) Animals were cutaneously inoculated with 10^7 PFU pf HSV-1 acyclovir resistant mutant viruses. The resulting cutaneous lesions were scored according to a subjective scoring system. The compound of Group 1 (Entry No. 29 in table 1) was administered orally (gavage) in an acidified vehicle (0.033 N aqueous HCl, tid for 10 days). Animals were similarly treated with acyclovir in 0.033 N aqueous HCl or only with the vehicle (0.033 N aqueous HCl). […] The dose-dependent effect of treatment with Entry No. 29 at 25 mg/kg/day (-.diamond-solid.-), 50 mg/kg/day (-.tangle-solidup.-), 75 mg/kg/day (-.quadrature.-), 100 mg/kg/day (-.circle-solid.-) or 125 mg/kg/day (-.box-solid.-), compared to treatment with vehicle alone (-.smallcircle.-), is shown in FIG. 2. The ED50 of Entry No. 29 was about 60 mg/kg/day. Similar experiments were done using the HSV-1 acyclovir-resistant mutant strain dlsptk (FIGS. 3 and 4). […] The dose-dependent effect of treatment with Entry No. 29 at 25 mg/kg/day (-.diamond-solid.-), 50 mg/kg/day (-.tangle-solidup.-), 75 mg/kg/day (-.quadrature.-), 100 mg/kg/day (-.circle-solid.-) or 125 mg/kg/day (-.box-solid.-), compared to treatment with vehicle alone (-.smallcircle.-), is shown in FIG. 4. […]

HSV-1 strain F or KOS = test: Inhibition of herpes simplex virus (HSV-1) replication in cell culture (BHK-21 cells, glycoprotein C ELISA); assay type: cell-based
In short: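 Replication readout: ELISA for HSV-1 late glycoprotein C (mAb C11, peroxidase-OPD, 450 nm) on glutaraldehyde-fixed cells. Monolayers (~50,000 cells/well) were infected with strain F or KOS (MOI 0.05 PFU/cell), then incubated 24 h at 37° with compound in 2% FBS α-MEM. EC50 derived from % inhibition.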

HSV-1 helicase-primase = molecular target: T1, HSV-1 helicase-primase (Human herpesvirus 1, UniProt P10189+P10236); test: HSV-1 DNA-dependent ATPase assay (inhibition of HSV-1 helicase-primase); assay type: biochemical
T1 construct: made in house; host or cells: Sf21 insect cells triply infected with recombinant baculoviruses (UL5, UL8, UL52)
In short: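 ATP hydrolysis was measured as inorganic phosphate (malachite green/molybdate, 650 nm) after 20 min at 34°. Reaction: 3 μg/mL purified Sf21-expressed UL5/UL8/UL52 helicase-primase, 25 μM single-stranded M13 DNA hybridized to 68-mer, 4 mM ATP, pH 7.5 HEPES buffer, 3.3% DMSO. Net absorbance change with and without inhibitor gave DNA-dependent ATPase activity.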

HCMV (strain AD169) [2] = test: Inhibition of HCMV replication, ELISA assay (Hs-68 cells); assay type: cell-based, Human Cytomegalovirus (HCMV); conditions: read-out: ELISA CMV EC50
In short: (§2)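 EC50 derived from % inhibition of viral replication, read as p28 late-protein ELISA signal (mAb UL99, peroxidase/OPD, 450 nm) on fixed cells. Read-out came 8 days post-infection at 37 °C in DMEM with 5% FBS plus compound, after 2 h adsorption of AD169 at MOI 0.01 PFU/cell onto near-confluent Hs-68 cells.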

[3] = as above; assay type: cell-based, Human Cytomegalovirus (HCMV); conditions: human, read-out: Cytotoxic at this concentration (footnote *, ELISA CMV column)
In short: as §2

HCMV (strain AD169) [4] = test: Inhibition of HCMV replication, plaque reduction assay (PRA, Hs-68 cells); assay type: cell-based, Human Cytomegalovirus (HCMV); conditions: read-out: PRA CMV EC50
In short: (§3)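 Hs-68 monolayers (80–90% confluent) were infected with ~50 PFU HCMV AD169 for 2 h at 37°, then given compound in DMEM/5% inactivated FBS, refreshed after 4 days and kept 4 more days. Plaques were counted after formaldehyde fixation and crystal violet staining. EC50 derives from percent plaque reduction versus untreated wells.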

[5] = as above; assay type: cell-based, Human Cytomegalovirus (HCMV); conditions: human
In short: as §3

[6] = tested on: HSV-1 acyclovir-resistant mutant strain dlsptk; test: Acyclovir-resistant HSV-1 cutaneous infection in immunodeficient nu/nu mice, strain dlsptk; assay type: in vivo, female nu/nu mice; conditions: oral gavage 100 mg/kg/day, tid for 10 days; strain dlsptk (FIG. 3)
Method: as §1

[7] = Human betaherpesvirus 5, AD169, Hs68, Group 2 Table 2 entries
[8] = Human betaherpesvirus 5, AD169, Hs68, Group 1 Table 2 entries
[9] = Human betaherpesvirus 5, AD169, Hs68, Group 1 Table 1 entries

T1 sequence (P10192 whole entry): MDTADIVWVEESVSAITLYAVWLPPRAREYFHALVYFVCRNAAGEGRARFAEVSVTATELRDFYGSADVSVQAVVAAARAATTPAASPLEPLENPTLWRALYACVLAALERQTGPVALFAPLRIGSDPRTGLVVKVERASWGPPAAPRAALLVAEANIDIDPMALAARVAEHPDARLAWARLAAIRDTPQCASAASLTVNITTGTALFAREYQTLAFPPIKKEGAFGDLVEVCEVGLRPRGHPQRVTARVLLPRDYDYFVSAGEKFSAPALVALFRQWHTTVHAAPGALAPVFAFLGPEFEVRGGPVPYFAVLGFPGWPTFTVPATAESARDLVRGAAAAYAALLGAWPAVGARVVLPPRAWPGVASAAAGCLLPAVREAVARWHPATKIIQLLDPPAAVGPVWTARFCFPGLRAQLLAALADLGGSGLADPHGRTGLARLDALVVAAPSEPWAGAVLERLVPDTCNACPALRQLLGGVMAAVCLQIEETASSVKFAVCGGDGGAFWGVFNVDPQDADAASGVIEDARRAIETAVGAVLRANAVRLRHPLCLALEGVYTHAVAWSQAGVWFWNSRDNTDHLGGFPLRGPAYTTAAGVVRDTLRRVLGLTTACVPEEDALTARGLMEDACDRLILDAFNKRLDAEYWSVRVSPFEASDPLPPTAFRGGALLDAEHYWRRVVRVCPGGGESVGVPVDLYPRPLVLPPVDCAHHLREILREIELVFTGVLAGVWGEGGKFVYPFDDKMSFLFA
T1 sequence (P10236 whole entry): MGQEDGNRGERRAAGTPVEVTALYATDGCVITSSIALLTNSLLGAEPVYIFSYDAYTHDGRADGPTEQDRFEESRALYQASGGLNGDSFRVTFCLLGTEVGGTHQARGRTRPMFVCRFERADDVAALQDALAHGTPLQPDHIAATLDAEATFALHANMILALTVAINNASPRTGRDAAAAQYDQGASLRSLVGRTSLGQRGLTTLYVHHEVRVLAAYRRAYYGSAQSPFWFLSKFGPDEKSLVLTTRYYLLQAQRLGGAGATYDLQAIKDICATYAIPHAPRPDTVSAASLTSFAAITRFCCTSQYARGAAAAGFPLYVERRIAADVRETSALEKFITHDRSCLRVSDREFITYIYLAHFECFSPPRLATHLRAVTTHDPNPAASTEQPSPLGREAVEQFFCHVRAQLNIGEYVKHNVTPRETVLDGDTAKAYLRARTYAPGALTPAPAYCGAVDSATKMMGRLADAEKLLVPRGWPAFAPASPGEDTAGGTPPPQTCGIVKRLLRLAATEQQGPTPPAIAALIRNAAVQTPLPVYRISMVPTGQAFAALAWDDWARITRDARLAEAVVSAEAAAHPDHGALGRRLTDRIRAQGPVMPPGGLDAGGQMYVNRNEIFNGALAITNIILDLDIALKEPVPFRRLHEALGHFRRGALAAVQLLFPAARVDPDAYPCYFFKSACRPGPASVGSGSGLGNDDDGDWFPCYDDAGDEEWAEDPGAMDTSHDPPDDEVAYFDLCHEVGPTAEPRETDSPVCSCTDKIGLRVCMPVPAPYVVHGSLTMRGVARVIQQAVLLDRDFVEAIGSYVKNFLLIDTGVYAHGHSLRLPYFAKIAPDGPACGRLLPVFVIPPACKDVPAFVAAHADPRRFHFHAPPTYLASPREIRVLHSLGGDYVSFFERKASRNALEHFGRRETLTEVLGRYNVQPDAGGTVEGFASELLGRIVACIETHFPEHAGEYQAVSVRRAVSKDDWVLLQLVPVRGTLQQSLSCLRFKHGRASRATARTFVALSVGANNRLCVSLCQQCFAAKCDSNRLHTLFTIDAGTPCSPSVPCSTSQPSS
T1 sequence (P10189 whole entry): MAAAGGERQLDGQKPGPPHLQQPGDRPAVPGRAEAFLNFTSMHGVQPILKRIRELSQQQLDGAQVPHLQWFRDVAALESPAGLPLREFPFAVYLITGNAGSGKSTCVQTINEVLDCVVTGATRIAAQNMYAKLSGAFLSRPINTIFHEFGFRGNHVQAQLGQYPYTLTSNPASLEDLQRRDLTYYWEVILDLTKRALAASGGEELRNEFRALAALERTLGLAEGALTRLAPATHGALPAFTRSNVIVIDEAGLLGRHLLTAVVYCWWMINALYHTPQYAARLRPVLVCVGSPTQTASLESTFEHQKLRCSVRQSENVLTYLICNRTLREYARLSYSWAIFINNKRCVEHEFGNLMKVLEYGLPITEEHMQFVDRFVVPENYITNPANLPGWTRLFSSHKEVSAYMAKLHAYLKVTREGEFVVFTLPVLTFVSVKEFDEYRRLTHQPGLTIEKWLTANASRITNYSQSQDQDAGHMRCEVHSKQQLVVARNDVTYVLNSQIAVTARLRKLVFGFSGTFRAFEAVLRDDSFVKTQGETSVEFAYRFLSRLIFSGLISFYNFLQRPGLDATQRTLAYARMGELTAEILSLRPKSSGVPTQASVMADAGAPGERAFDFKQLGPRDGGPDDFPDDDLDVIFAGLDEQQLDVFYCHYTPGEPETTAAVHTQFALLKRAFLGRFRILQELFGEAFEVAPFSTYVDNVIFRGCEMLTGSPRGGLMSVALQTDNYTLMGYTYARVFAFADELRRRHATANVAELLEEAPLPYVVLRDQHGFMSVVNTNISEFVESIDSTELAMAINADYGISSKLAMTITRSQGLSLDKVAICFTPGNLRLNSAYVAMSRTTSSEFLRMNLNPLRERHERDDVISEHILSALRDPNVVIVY

For `Nc1nc(-c2ccc(NC(=O)CN(Cc3ccccc3)C(=O)c3ccncc3)cc2)cs1` [Entry 29], which ED50 (HSV-2 HG-52) is on record?
Its ED50 is 60 mg/kg.

And the ED50 ([1]; Human alphaherpesvirus 1, po, 240 h, read-out: ED50, cutaneous lesions)?
The ED50 was about 60 mg/kg.

Which EC50 (HSV-1 strain F or KOS; Human alphaherpesvirus 1, BHK-21, Group 1 Table 5 entries) does the source give for `Nc1nc(-c2ccc(NC(=O)[C@H](Cc3ccccc3)NC(=O)C3CCCCC3)cc2)cs1` [Example 1] here?
The EC50 was 0.079 µM.

What about the IC50 (HSV-1 helicase-primase; Group 1 Table 5 entries) of the same compound?
The IC50 was 0.052 µM.

And the EC50 (HCMV (strain AD169) [2]; Human betaherpesvirus 5, AD169, Hs68, Group 1 Table 5 entries)?
The EC50 was 14 µM.

What about the MCC at 192 h ([3]; Group 1 Table 5 entries) of the same compound?
Its MCC at 192 h is 14 µM.

With `Nc1nc(-c2ccc(NC(=O)C(=O)N(Cc3ccccc3)Cc3ccccc3)cc2)cs1` [Example 2] as the compound, how does the EC50 (HSV-1 strain F or KOS; Human alphaherpesvirus 1, BHK-21, Group 2 Table 2 entries) read?
Its EC50 is 0.77 µM.

What about the EC50 (HCMV (strain AD169) [2]; [7]) of the same compound?
The EC50 was 10 µM.

And the EC50 (HCMV (strain AD169) [4]; [7])?
The EC50 was 12 µM.

What about the MCC at 192 h ([5]; Group 2 Table 2 entries, read-out: Cytotoxic at this concentration (footnote *, PRA CMV)) of the same compound?
The MCC at 192 h was 12 µM.

Which EC50 (HSV-1 strain F or KOS; Human alphaherpesvirus 1, BHK-21, Group 1 Table 2 entries) does the source give for `CC(C)(C)OC(=O)N(CCC(=O)Nc1ccc(-c2csc(N)n2)cc1)C1CCc2ccccc21` (stereo not drawn) [Example 13] here?
Its EC50 is 3.4 µM.

And the EC50 (HCMV (strain AD169) [2]; [8])?
The EC50 was 37 µM.

What about the EC50 (HCMV (strain AD169) [4]; [8]) of the same compound?
Its EC50 is 9 µM.

What about the MCC at 192 h ([5]; Group 1 Table 2 entries, read-out: Cytotoxic at this concentration (footnote, PRA CMV)) of the same compound?
Its MCC at 192 h is 9 µM.

For `CCCC(CCC)N(CC(=O)Nc1ccc(-c2csc(N)n2)cc1)C(=O)OC(C)(C)C` [Example 111], which EC50 (HSV-1 strain F or KOS; Human alphaherpesvirus 1, BHK-21, Group 1 Table 1 entries) is on record?
Its EC50 is 0.24 µM.

And the IC50 (HSV-1 helicase-primase; Group 1 Table 1 entries)?
Its IC50 is 0.37 µM.

And the EC50 (HCMV (strain AD169) [2]; [9])?
Its EC50 is 4 µM.

What about the MCC at 192 h ([3]; Group 1 Table 1 entries) of the same compound?
Its MCC at 192 h is 4 µM.

Which results are given for `Cc1ccccc1CN(CC(=O)Nc1ccc(-c2csc(N)n2)cc1)C(=O)Cc1ccccn1` [Example 127]?
IC50 (HSV-1 helicase-primase; Group 1 Table 1 entries): 0.99 µM; EC50 (HCMV (strain AD169) [2]; [9]): 8.8 µM; EC50 (HCMV (strain AD169) [4]; [9]): 25 µM; MCC at 192 h ([5]; Group 1 Table 1 entries, read-out: Cytotoxic at this concentration (footnote *, PRA CMV)): 25 µM

With `Nc1nc2c(ncn2COCCO)c(=O)[nH]1` [acyclovir, reference compound] as the compound, how does the “effect on cutaneous lesions” value ([1]; oral gavage 100 mg/kg/day, tid for 10 days, strain PAAr 5 (FIG. 1)) read?
Its value is “no effect on cutaneous lesions”.

And the “effect on cutaneous lesions” value [6]?
Its value is “no effect on cutaneous lesions”.
